According to patent publication US20260034063A1 (Opella Healthcare Group SAS, priority 2023, published 2026):

Assays:
[1] = system: Bacteria; Fungus and yeast; assay: Preservative system efficacy test (PET), summary statements; format: cell-based; settings: for preservative system efficacy test (PET) results: in fexofenadine suspension with EDTA, Ph. Eur and USP criteria
Description: (§1) To generate the formulations, the parabens of the existing formulations were replaced with the tested putative paraben replacement. The formulation stayed otherwise the same. As such, all of the preservatives were tested in combination with EDTA.
(§2) Further studies to test use of potassium sorbate for efficacy as an antimicrobial preservative were carried out in the formula with potassium sorbate in order to confirm the minimum concentration of use and definition of the specification, furthering the American and European monographs, in order to meet the different regulatory requirements of the countries in which this new formula will be submitted. The stability studies were conducted for a period of 36 months.

[2] = Fraction of fexofenadine in zwitterion form at suspension pH; format: physicochemical; settings: pH between 5.8 and 7.0
Text: The conversion of anhydrous form to the zwitterion shape is controlled by the pH of the suspension, which is monitored throughout the manufacture of the product, and controlled by the addition of monobasic sodium phosphate buffers and dibasic sodium phosphate.

[3] = system: Bacteria; Fungus and yeast; assay: Preservative efficacy test, criteria of the US Pharmacopoeia (USP <51>); format: cell-based; settings: American pharmacopoeia criteria
Description: as §1, §2

[4] = system: Bacteria; Fungus and yeast; assay: Preservative efficacy test, criteria of the European pharmacopoeia (Ph. Eur 5.1.3); format: cell-based
Description: as §1, §2

[5] = stability studies conducted for 36 months
Description: as §2

## CCCCCCCCCCCC[N+](C)(C)CCOc1ccccc1 [Domiphen bromide]
[1]
  preservative system efficacy test (PET) results: good

## CC(C)(C(=O)O)c1ccc(C(O)CCCN2CCC(C(O)(c3ccccc3)c3ccccc3)CC2)cc1.Cl (stereo not drawn) [Fexofenadine, 4-[1-hydroxy-4-[4-(hydroxydiphenylmethyl)-1-piperidinyl]-butyl]-α,α-dimethyl benzeneacetic acid hydrochloride]
[2]
  fexofenadine in the form of zwitterion: 97%

## C/C=C/C=C/C(=O)[O-].[K+] [Potassium sorbate]
[3]
  point of failure (concentration): 0.10
[4]
  point of failure (concentration): 0.3%
[1]; criteria of both pharmacopoeias, fexofenadine suspension with EDTA
  concentration considered effective as a preservative: 0.4%
[5]
  effective as preservative until (stability time): 36 months

## O=C([O-])c1ccccc1.[Na+] [Sodium Benzoate, Sodium benzoate]
[1]
  preservative system efficacy test (PET) results: satisfactory
